Assay results: ChEMBL document CHEMBL1146052, “Inhibitors of epidermal growth factor receptor tyrosine kinase: Novel C-5 substituted anilinoquinazolines designed to target the ribose pocket” (Bioorg Med Chem Lett, 2006)

Key:
[1] = Percent of unbound ligand in rat plasma at 5 mg/kg, po and 2 mg/kg, iv; type: ADME, organism-based
[2] = Half life in mouse at 5 mg/kg, po and 2 mg/kg, iv; type: ADME, organism-based; conditions: in vivo
[3] = Plasma clearance in mouse at 5 mg/kg, po and 2 mg/kg, iv; type: ADME, organism-based
[4] = Percent of unbound ligand in mouse plasma at 5 mg/kg, po and 2 mg/kg, iv; type: ADME, organism-based
LoVo = assay: Inhibition of tumor volume in human LoVo cell xenografted in mice at 100 mg/kg, po; conditions: Mus musculus, read-out: Inhibition
[5] = Bioavailability in rat at 5 mg/kg, po and 2 mg/kg, iv; type: ADME, organism-based; conditions: in vivo
[6] = Bioavailability in mouse at 5 mg/kg, po and 2 mg/kg, iv; type: ADME, organism-based; conditions: in vivo
[7] = target: Epidermal growth factor receptor (Homo sapiens, UniProt P00533); assay: Inhibitory activity against EGFR
[8] = Volume of distribution in rat at 5 mg/kg, po and 2 mg/kg, iv; type: ADME, organism-based; conditions: in vivo, read-out: Vdss
[9] = Volume of distribution in mouse at 5 mg/kg, po and 2 mg/kg, iv; type: ADME, organism-based; conditions: in vivo, read-out: Vdss
[10] = Half life in rat at 5 mg/kg, po and 2 mg/kg, iv; type: ADME, organism-based; conditions: in vivo
[11] = Plasma clearance in rat at 5 mg/kg, po and 2 mg/kg, iv; type: ADME, organism-based

Chain of Epidermal growth factor receptor (P00533 whole entry): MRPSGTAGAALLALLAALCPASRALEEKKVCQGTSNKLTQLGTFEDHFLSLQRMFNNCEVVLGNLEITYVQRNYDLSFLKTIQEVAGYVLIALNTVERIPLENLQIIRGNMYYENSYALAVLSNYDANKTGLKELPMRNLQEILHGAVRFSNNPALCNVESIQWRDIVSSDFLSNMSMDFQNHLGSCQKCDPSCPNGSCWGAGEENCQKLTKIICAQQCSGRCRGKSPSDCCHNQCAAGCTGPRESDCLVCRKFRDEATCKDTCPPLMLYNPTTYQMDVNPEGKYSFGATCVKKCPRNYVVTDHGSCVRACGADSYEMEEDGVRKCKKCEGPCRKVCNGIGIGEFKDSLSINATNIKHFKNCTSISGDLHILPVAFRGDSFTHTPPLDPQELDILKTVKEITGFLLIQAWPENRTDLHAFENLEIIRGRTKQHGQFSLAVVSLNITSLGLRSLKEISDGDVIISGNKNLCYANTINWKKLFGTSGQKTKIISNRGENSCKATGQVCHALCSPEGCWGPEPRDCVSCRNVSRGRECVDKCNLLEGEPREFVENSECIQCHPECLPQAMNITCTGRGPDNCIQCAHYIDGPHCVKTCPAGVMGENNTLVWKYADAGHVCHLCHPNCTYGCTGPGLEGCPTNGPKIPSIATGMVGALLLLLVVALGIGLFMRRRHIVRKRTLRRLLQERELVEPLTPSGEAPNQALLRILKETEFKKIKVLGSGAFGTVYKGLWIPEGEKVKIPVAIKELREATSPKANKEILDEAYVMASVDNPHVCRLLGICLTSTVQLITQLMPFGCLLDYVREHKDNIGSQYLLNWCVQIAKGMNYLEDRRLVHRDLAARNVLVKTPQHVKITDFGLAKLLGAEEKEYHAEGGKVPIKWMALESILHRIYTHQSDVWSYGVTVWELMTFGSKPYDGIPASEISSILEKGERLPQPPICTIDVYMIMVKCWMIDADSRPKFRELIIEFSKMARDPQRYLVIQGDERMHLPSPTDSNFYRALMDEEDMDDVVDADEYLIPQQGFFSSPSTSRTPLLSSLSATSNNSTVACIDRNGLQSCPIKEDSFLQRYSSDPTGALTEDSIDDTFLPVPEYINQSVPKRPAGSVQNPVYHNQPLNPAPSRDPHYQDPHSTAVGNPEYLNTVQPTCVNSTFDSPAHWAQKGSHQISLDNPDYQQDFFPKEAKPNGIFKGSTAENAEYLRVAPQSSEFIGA

Row | Compound | IC50 [7] [µM] | also measured
1 | CN1CCC(Oc2cccc3ncnc(Nc4ccc(F)c(Cl)c4)c23)CC1 | 0.003 | –
2 | CCCN1CCC(Oc2cc(OC)cc3ncnc(Nc4ccc(F)c(Cl)c4)c23)CC1 | < 0.002 | –
3 | COc1ccc2ncnc(Nc3ccc(F)c(Cl)c3)c2c1OC1CCN(C)CC1 | 0.225 | –
4 | CCN1CCC(Oc2cc(OC)cc3ncnc(Nc4ccc(F)c(Cl)c4)c23)CC1 | < 0.002 | –
5 | COc1cc(OC2CCN(C(C)=O)CC2)c2c(Nc3ccc(F)c(Cl)c3)ncnc2c1 | 0.873 | –
6 | CN1CCN(CCCOc2cc(OC3CCOCC3)c3c(Nc4ccc(F)c(Cl)c4)ncnc3c2)CC1 | 0.066 | –
7 | COc1cc(OC(C)C)c2c(Nc3ccc(F)c(Cl)c3)ncnc2c1 | 8.07 | –
8 | COc1cc(OC2CCN(S(C)(=O)=O)CC2)c2c(Nc3ccc(F)c(Cl)c3)ncnc2c1 | 9.6 | –

The next lines start with results.

Row | IC50 [7] [µM] | Compound | also measured
9 | 0.021 | COc1cc(OC2CCN(C)CC2)c2c(Nc3ccc(F)c(Cl)c3)ncnc2c1 | fraction unbound [1]: 0.0251; half-life [2]: 5.2 h; clearance [3]: 20 mL/min/kg; fraction unbound [4]: 0.0311; inhibition in vivo at 100 mg/kg (LoVo): 60%; bioavailability [5]: 63%; bioavailability [6]: 103%; Vd [8]: 12.3 L/kg; Vd [9]: 8.2 L/kg; half-life [10]: 2.9 h; clearance [11]: 66 mL/min/kg
10 | 0.01 | COc1cc(OC2CCNCC2)c2c(Nc3ccc(F)c(Cl)c3)ncnc2c1 | –
11 | 1.38 | COc1cc(OC2CCOCC2)c2c(Nc3ccc(F)c(Cl)c3)ncnc2c1 | –
12 | 0.671 | COCCOc1cc(OC2CCOCC2)c2c(Nc3ccc(F)c(Cl)c3)ncnc2c1 | –
